# Molecular target: T1, prolyl oligopeptidase (POP) (Homo sapiens, UniProt P48147)
# T1 construct: made in house; host or cells: E. coli BL21
# T1 sequence (P48147 1-710): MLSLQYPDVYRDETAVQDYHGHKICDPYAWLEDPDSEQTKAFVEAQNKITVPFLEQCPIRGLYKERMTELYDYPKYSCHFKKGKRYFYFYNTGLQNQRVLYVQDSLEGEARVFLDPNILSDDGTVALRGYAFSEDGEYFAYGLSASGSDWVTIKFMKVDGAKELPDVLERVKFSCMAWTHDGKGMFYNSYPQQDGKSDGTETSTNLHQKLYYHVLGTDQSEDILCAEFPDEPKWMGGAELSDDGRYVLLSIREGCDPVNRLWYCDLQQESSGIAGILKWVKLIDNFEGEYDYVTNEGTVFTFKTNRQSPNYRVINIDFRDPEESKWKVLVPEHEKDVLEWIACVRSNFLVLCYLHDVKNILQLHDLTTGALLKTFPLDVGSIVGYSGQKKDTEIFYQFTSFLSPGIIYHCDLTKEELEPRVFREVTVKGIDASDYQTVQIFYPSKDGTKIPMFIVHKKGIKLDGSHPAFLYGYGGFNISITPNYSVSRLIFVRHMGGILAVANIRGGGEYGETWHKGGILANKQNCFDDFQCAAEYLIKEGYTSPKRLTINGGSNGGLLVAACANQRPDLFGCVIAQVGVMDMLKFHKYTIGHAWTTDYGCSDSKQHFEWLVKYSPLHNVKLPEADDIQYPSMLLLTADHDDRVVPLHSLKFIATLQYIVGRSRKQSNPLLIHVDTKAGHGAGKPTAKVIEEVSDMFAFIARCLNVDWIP
# Test: ITC enthalpy of catalysis and Michaelis-Menten parameters with TRH
# Format: biochemical
# Conditions: 30 °C
# Experimental: Prolyl oligopeptidase enthalpy of catalysis and Michaelis-Menten parameters.
# Supplementary Figure 3. Prolyl oligopeptidase and TRH enthalpy of catalysis. 3 injections (15 µL over 30 s) of Thyrotropin-releasing Hormone (TRH) (5.5 mM in syringe) into cell containing POP (250 nM in Cell) at 30 °C in buffer described above. Experiment was carried out using a Malvern VP -ITC.
# Supplementary Figure 4. Michaelis-Menten plot for prolyl oligopeptidase with TRH. 5 injections (8 µL, 6 […]
# Thyrotropin -releasing Hormone (TRH) (27.6 mM in syringe) into cell containing POP (2.5 nM in Cell) at 30 °C in buffer described above. The enzyme velocity at several concentrations of substrate (black ope n circles) was extracted using the methods described in 13 and fit to Michaelis-Menten kinetics (blue curve).
# Experiment was carried out in Malvern VP -ITC. […]
# Supplementary Table 1. Summary of prolyl oligopeptidase 13 enzyme parameters with TRH. Determined by ITC using techniques presented by Gomez et al.
# Enthalpy of binding in kinetics of inhibition and initiation experiments . In the kinetics of inhibition and initiation experiments performed here, the instrument measures both the heat generated by enzymatic catalysis and the heat produced due direct interaction of the inhibitor with the enzyme. In order to estimate the relative magnitudes of these two effects, the enthalpy of binding was directly measured […]
# 1000-fold greater, 5 µM) than those used in kinetics of inhibition and initiation experiments (Supplementary Fig. 5 ). Binding data were then modelled at the concentrations of enzyme and inhibitor and injection size and spacing used for the kinetic experiment for compound 5, with representative instrumental noise estimated from the basel ines, ΔHbind taken from Supplementary Table 2 and Ki taken as a previously reported value (0.5 nM) 14 (Supplementary Fig. 6).
# Supplementary Figure 5. Compound 5 prolyl o ligopeptidase binding experiments. Compound 5 (90 µM) was titrated into 5 µM POP in cell using a Malvern ITC-200 calorimeter. […]
substance,measurement,value
thyrotropin-releasing hormone [TRH],Km,975 µM
same,kcat,42.19 s⁻¹
same,ΔHcat,-6.72 ± 0.06 kcal/mol
